According to US9771345B2, “Coferons and methods of making and using them” (Cornell University, priority 2009, dated 2017):

Columns and labels:
[1] = Alizarin Red S displacement: equilibrium between boronic acid and diols or other ligands; assay type: physicochemical; details: 0.10 M phosphate buffer, pH 7.4; no Keq range given
Description: To assess the potential of boronic acid diol pairs as potential summa linkers within Coferons, the Alizarin Red S method was used essentially as described (Springsteen, G. and Wang, B, Tetrahedron 58: 5291-5300 (2002), which is hereby incorporated by reference in its entirety). Alizarin Red S gives a red color when free in solution, and shifts to yellow when complexed to boronic acids.
To determine equilibria between boronic acid species and diols or other ligands, a solution containing 2.0×10^−3 M boronic acid, 1.0×10^−4 M of ARS in 0.10 M phosphate buffer, pH 7.4 was prepared. Diol or other ligands from 3×10^−2 M to 1.0×10^−4 M were serially diluted into the above boronic acid-ARS mix, and absorbance spectra were determined from 350 to 750 nm. (stock solutions were made to 100 mM in DMSO). The higher concentrations of diol would displace the boronic acid from complexation with ARS, liberating free ARS and turning the solution pink. The percent complexed and percent free ARS was determined by comparing absorbance level to fully complexed and free ARS at 440 and 550 nm. The approximate equilibrium constant Keq2 for a given boronic acid-diol complexation was estimated using the formula: Keq=[ARS−PBA]/[ARS]×[PBA] [PBA]=[ARS−PBA]/[ARS]×Keq [Sorb−PBA]=0.002−[PBA]−[ARS−PBA] [Sorb]=Total Sorb−[Sorb−PBA] Keq2=[Sorb PBA]/[Sorb]×[PBA] (where ARS=Alizarin Red S; Sorb=sorbitol; and PBA=Phenylboronic acid as an example).

[2] = LC-MS/MS determination of dimerization of summa linkers; assay type: physicochemical; details: for Dimer 4 level: after 115 h
Description: For summa linkers and coferons that form dimers that are slow to hydrolyze/equilibrate under the chromatographic conditions, evidence for dimerization or oligomerization may be generated using LC-MS/MS methods in which the monomeric and dimeric species are separated by reversed-phase liquid chromatography and identified using tandem mass spectrometric methods, typically utilizing MRM transitions to maximize sensitivity. Often this approach is capable of separating and quantifying isomeric and diastereomeric dimeric states of the summa linker and coferon assemblies.
Typically, a solution of the following homodimeric summa linker was incubated under various conditions of pH, concentration, organic cosolvent, or protein additives, etc. and aliquots were chromatographed on a Primesep 200 (150×4.6 mm, 5μ) RP-HPLC column using a flow rate of 1.0 mL/min and a linear gradient of 0.1% aqueous TFA/acetonitrile over 25-30 minutes. Preparations containing a known amount of dimeric species (as determined by NMR for example) can be employed as a standard to allow for accurate quantitation of monomeric and dimeric states. For example, using such conditions, 4 isomeric dimers of the following racemic amino-cyclobutanone summa linker moiety (RT 7.29 min; example 47; >99.7% monomeric) were quantified under various conditions. When incubated at 0.125 mg/mL at 20° C. at pH 2.0 in 0.1% TFA, dimers-1, -2 & -3 eluting at 15, 15.5 and 16 min, respectively, increased from 0.06%, 0.06% and 0.11% at time zero to 2.35, 2.3%, and 5.2% after 169 h; dimer-4 was not observed under these conditions. […] Complete equilibrium between monomer and dimer-4 was not achieved within this timeframe, as dimer-4 was still increasing at 169 h.

[3] = 0.125 mg/mL, 20° C., pH 2.0 in 0.1% TFA, after 169 h
[4] = 0.125 mg/mL, 20° C., pH 2.0 in 0.1% TFA, time zero

## O=C(O)C(O)c1ccccc1 (racemic) [DL-mandelic acid, DL-Mandelic acid]
[1]
  affinity of diol or other ligand for boronic acids in aqueous solution (in words): lower affinities for boronic acids

## O[C@@H]1CCCC[C@H]1O (relative stereo) [trans-1,2-cyclohexanediol, trans-1,2-Cyclohexanediol]
[1]
  affinity of diol or other ligand for boronic acids in aqueous solution (in words): lower affinities for boronic acids

## CC(CO)(CO)CO [1,1,1-tris(hydroxymethyl)ethane, 1,1,1-Tris(hydroxymethyl)ethane]
[1]
  affinity of diol or other ligand for boronic acids in aqueous solution (in words): lower affinities for boronic acids

## O=C(CO)CO [1,3-dihydroxyacetone]
[1]
  affinity of diol or other ligand for boronic acids in aqueous solution (in words): lower affinities for boronic acids

## CC(CO)(CO)C(=O)O [2,2-bis(hydroxymethyl)propionic acid, 2,2-Bis(hydroxymethyl)propionic acid]
[1]
  affinity of diol or other ligand for boronic acids in aqueous solution (in words): lower affinities for boronic acids

## O=C(O)C(O)c1cccc(F)c1F (stereo not shown) [2,3-difluoromandelic acid, 2,3-Difluoromandelic acid]
[1]
  affinity of diol or other ligand for boronic acids in aqueous solution (in words): lower affinities for boronic acids

## O=C(O)C(O)c1ccc(F)cc1F (stereo not shown) [2,4-difluoromandelic acid, 2,4-Difluoromandelic acid]
[1]
  affinity of diol or other ligand for boronic acids in aqueous solution (in words): lower affinities for boronic acids

## O=C(O)C(O)c1cc(F)ccc1F (stereo not shown) [2,5-difluoromandelic acid, 2,5-Difluoromandelic acid]
[1]
  affinity of diol or other ligand for boronic acids in aqueous solution (in words): lower affinities for boronic acids

## O=C(O)C(O)c1c(F)cccc1F (stereo not shown) [2,6-difluoromandelic acid, 2,6-Difluoromandelic acid]
[1]
  affinity of diol or other ligand for boronic acids in aqueous solution (in words): lower affinities for boronic acids

## O=C(O)c1c(O)cccc1O [2,6-dihydroxybenzoic acid, 2,6-Dihydroxybenzoic acid]
[1]
  affinity of diol or other ligand for boronic acids in aqueous solution (in words): lower affinities for boronic acids

## CNc1ccccc1O [2-(methylamino)phenol, 2-(Methylamino)phenol]
[1]
  affinity of diol or other ligand for boronic acids in aqueous solution (in words): lower affinities for boronic acids

## CC(=O)Nc1ccccc1O [2-acetamidophenol, 2-Acetamidophenol]
[1]
  affinity of diol or other ligand for boronic acids in aqueous solution (in words): lower affinities for boronic acids

## CC(N)(CO)CO [2-amino-2-methyl-1,3-propanediol, 2-Amino-2-methyl-1,3-propanediol]
[1]
  affinity of diol or other ligand for boronic acids in aqueous solution (in words): lower affinities for boronic acids

## Cc1ccc(O)c(N)c1 [2-amino-4-methylphenol, 2-Amino-4-methylphenol]
[1]
  affinity of diol or other ligand for boronic acids in aqueous solution (in words): lower affinities for boronic acids

## O=C(O)C(O)c1ccccc1F (stereo not shown) [2-fluoromandelic acid, 2-Fluoromandelic acid]
[1]
  affinity of diol or other ligand for boronic acids in aqueous solution (in words): lower affinities for boronic acids

## COc1cccc(CO)c1O [2-hydroxy-3-methoxybenzyl alcohol, 2-Hydroxy-3-methoxybenzyl alcohol]
[1]
  affinity of diol or other ligand for boronic acids in aqueous solution (in words): lower affinities for boronic acids

## O=C(O)C(O)(C(F)(F)F)C(F)(F)F [3,3,3-Trifluoro-2-hydroxy-2-(trifluoromethyl)propionic acid]
[1]
  affinity of diol or other ligand for boronic acids in aqueous solution (in words): lower affinities for boronic acids

## CC(O)(C(=O)O)C(F)(F)F (stereo not shown) [3,3,3-Trifluoro-2-hydroxy-2-methylpropionic Acid]
[1]
  affinity of diol or other ligand for boronic acids in aqueous solution (in words): lower affinities for boronic acids

## O=C(O)C(O)c1cc(F)cc(F)c1 (stereo not shown) [3,5-difluoromandelic acid, 3,5-Difluoromandelic acid]
[1]
  affinity of diol or other ligand for boronic acids in aqueous solution (in words): lower affinities for boronic acids

## O=C(O)C1(O)CNC1 [3-hydroxyazetidine-3-carboxylic acid]
[1]
  affinity of diol or other ligand for boronic acids in aqueous solution (in words): lower affinities for boronic acids

## CNCC(O)CO (stereo not shown) [3-methylamino-1,2-propanediol, 3-Methylamino-1,2-propanediol]
[1]
  affinity of diol or other ligand for boronic acids in aqueous solution (in words): lower affinities for boronic acids

## O=C(O)C(O)c1ccc(C(F)(F)F)cc1 (stereo not shown) [4-(trifluoromethyl)mandelic acid, 4-(Trifluoromethyl)mandelic acid]
[1]
  affinity of diol or other ligand for boronic acids in aqueous solution (in words): lower affinities for boronic acids

## O[C@@H]1CNC[C@@H]1O [(3S,4R)-pyrrolidine-3,4-diol]
[1]
  affinity of diol or other ligand for boronic acids in aqueous solution (in words): lower affinities for boronic acids

## O=C[C@H](O)[C@@H](O)[C@H](O)[C@H](O)CO [D-(+)-glucose, D-(+)-Glucose]
[1]
  affinity of diol or other ligand for boronic acids in aqueous solution (in words): lower affinities for boronic acids

## CCOC(=O)c1cnc(NC2CCC2=O)nc1C (stereo not shown) [Example 47, Ethyl 4-methyl-2-((2-oxocyclobutyl)amino)pyrimidine-5-carboxylate]
[2]; 0.125 mg/mL, 20° C., pH 2.0 in 0.1% TFA
  dimer-4 formation: not observed
[2]; [3]
  dimer-1 level: 2.35%
  dimer-2 level: 2.3%
  dimer-3 level: 5.2%
[2]; [4]
  dimer-1 level: 0.06%
  dimer-2 level: 0.06%
  dimer-3 level: 0.11%
[2]; 0.5 mg/mL, pH7.4 HEPES buffer with BSA
  fraction of dimer-4 at equilibrium: > 14%
[2]; 0.5 mg/mL, pH7.4 HEPES buffer, in the absence of BSA
  Dimer 4 level: 4.73%
[2]; 0.5 mg/mL, pH7.4 HEPES buffer, in the presence of BSA
  Dimer 4 level: 13.75%
[2]; pH7.4 HEPES buffer, 169 h
  dimer-4 level: 1.82%
[2]; pH7.4 HEPES buffer, over 169 h
  levels of dimers-1, -2, and -3: below 0.01%
[2]; pH7.4 HEPES buffer, start
  dimer-4 level: < 0.015%

## O=C(NCCO)c1ccccc1O [N-(2-hydroxyethyl)salicylamide, N-(2-Hydroxyethyl)salicylamide]
[1]
  affinity of diol or other ligand for boronic acids in aqueous solution (in words): lower affinities for boronic acids

## O[C@@H]1CCCC[C@@H]1O [cis-1,2-cyclohexanediol, cis-1,2-Cyclohexanediol]
[1]
  affinity of diol or other ligand for boronic acids in aqueous solution (in words): lower affinities for boronic acids

## O=C([O-])C(=O)CO.[Li+] [hydroxypyruvic acid, lithium salt, Hydroxypyruvic acid, Lithium salt]
[1]
  affinity of diol or other ligand for boronic acids in aqueous solution (in words): lower affinities for boronic acids

## CC(O)C(=O)O (stereo not shown) [lactic acid (solution), Lactic acid]
[1]
  affinity of diol or other ligand for boronic acids in aqueous solution (in words): lower affinities for boronic acids

## OCC(CO)(CO)CO [pentaerythritol, Pentaerythritol]
[1]
  affinity of diol or other ligand for boronic acids in aqueous solution (in words): lower affinities for boronic acids

## O=C(O)C(=O)Cc1ccccc1 [phenylpyruvic acid, Phenylpyruvic acid]
[1]
  affinity of diol or other ligand for boronic acids in aqueous solution (in words): lower affinities for boronic acids

## CC(C)(O)C(C)(C)O [pinacol, Pinacol]
[1]
  affinity of diol or other ligand for boronic acids in aqueous solution (in words): lower affinities for boronic acids

## O=C(O)c1ccccc1O [salicylic acid, Salicylic acid]
[1]
  affinity of diol or other ligand for boronic acids in aqueous solution (in words): lower affinities for boronic acids

## NC(CO)(CO)CO [tris base (TRIZMA Base), Tris Base (TRIZMA Base)]
[1]
  affinity of diol or other ligand for boronic acids in aqueous solution (in words): lower affinities for boronic acids
